From US9815792B2, “Method for producing carboxamides” (BAYER CROPSCIENCE AKTIENGESELLSCHAFT, priority 2014, dated 2017)
Read-outs that look alike come from different tables or passages of the source.

How the values were obtained:
Meloidogyne incognita = Meloidogyne incognita test (MELGIN); type: in vivo; conditions: 20 ppm, lettuce, after 14 days
Method: Meloidogyne incognita test (MELGIN)
Solvent: 125.0 parts by weight of acetone
To produce a suitable active compound formulation, 1 part by weight of active compound is mixed with the stated amount of solvent and the concentrate is diluted with water to the desired concentration.
Vessels are filled with sand, active compound solution, an egg/larvae suspension of the southern root-knot nematode (Meloidogyne incognita) and lettuce seeds. The lettuce seeds germinate and the plants develop. The galls develop on the roots.
After 14 days, the nematicidal efficacy in % is determined by the formation of galls. 100% means that no galls were found; 0% means that the number of galls on the treated plants corresponds to the untreated control.

[1] = Determination of log P values by HPLC on reversed-phase column (C18); type: physicochemical
Method: Unless indicated otherwise, the following method was used to determine the log P values and masses: The determination of the given log P values was carried out in accordance with EEC Directive 79/831 Annex V.A8 by HPLC (High Performance Liquid Chromatography) on a reversed-phase column (C18). […] Mass detection is effected by means of an Agilend MSD system.

Cooperia curticei = Cooperia curticei test (COOPCU); type: in vivo; conditions: 20 ppm, nematode larvae, after 5 days
Method: Cooperia curticei test (COOPCU)
(§1) Solvent: dimethyl sulphoxide
(§2) To produce a suitable preparation of active compound, 10 mg of active compound are mixed with 0.5 ml of dimethyl sulphoxide and the concentrate is diluted with “Ringer's solution” to the desired concentration.
Vessels containing the active compound preparation of the desired concentration are populated with about 40 nematode larvae (Cooperia curticei).
(§3) After 5 days, the kill in % is determined. 100% means that all the larvae has been killed; 0% means that none of the larvae has been killed.

Phaedon cochleariae = Phaedon cochleariae spray test (PHAECO); type: in vivo; conditions: 500 g/ha, Chinese cabbage leaf discs, after 7 days
Method: Phaedon cochleariae—spray test (PHAECO) • Solvent: 78.0 parts by weight of acetone 1.5 parts by weight of dimethylformamide • Emulsifier: alkylaryl polyglycol ether
(§4) To produce a suitable preparation of active compound, 1 part by weight of active compound is dissolved using the stated parts by weight of solvent and made up with water containing an emulsifier concentration of 1000 ppm until the desired concentration is attained. To produce further test concentrations, the preparation is diluted with emulsifier-containing water.
After 7 days, the efficacy in % is determined. 100% means that all the beetle larvae have been killed; 0% means that no beetle larvae have been killed.

Haemonchus contortus = Haemonchus contortus test (HAEMCO); type: in vivo; conditions: 20 ppm, larvae of the red stomach worm, after 5 days
Method: Haemonchus contortus—test (HAEMCO)
as §1, §2
Vessels containing the active compound preparation of the desired concentration are populated with about 40 larvae of the red stomach worm (Haemonchus contortus).
as §3

Boophilus microplus = Boophilus microplus injection test (BOOPMI inj); type: in vivo; conditions: 20 μg/animal, injection into engorged adult female cattle ticks, assessed after 7 days
Method: Boophilus microplus—injection test (BOOPMI inj)
as §1
To produce a suitable preparation of active compound, 10 mg of active compound are mixed with 0.5 ml of solvent and the concentrate is diluted with solvent to the desired concentration.
1 μl of the active compound solution is injected into the abdomen of 5 engorged adult female cattle ticks (Boophilus microplus). The animals are transferred into dishes and kept in a climate-controlled room.
Efficacy is assessed after 7 days by laying of fertile eggs. Eggs which are not visibly fertile are stored in a climate-controlled cabinet until the larvae hatch after about 42 days. An efficacy of 100% means that none of the ticks has laid any fertile eggs; 0% means that all the eggs are fertile.

Tetranychus urticae = Tetranychus urticae spray test, OP-resistant (TETRUR); type: in vivo; conditions: 500 g/ha, bean leaf discs, after 6 days
Method: Tetranychus urticae—spray test, OP-resistant (TETRUR) • Solvent: 78.0 parts by weight of acetone 1.5 parts by weight of dimethylformamide • Emulsifier: alkylaryl polyglycol ether
as §4
Discs of bean leaves (Phaseolus vulgaris) infested by all stages of the greenhouse red spider mite (Tetranychus urticae) are sprayed with an active compound formulation of the desired concentration.
After 6 days, the efficacy in % is determined. 100% means that all the spider mites have been killed; 0% means that no spider mites have been killed.

[2] = formic acid method, read-out: log P(HCOOH)
[3] = neutral, read-out: log P(neutral)

Compound	chromatographic logP [1, 2]	chromatographic logP [1, 3]	efficacy (kill in %) (Haemonchus contortus) [%]	other results
O=C(Nc1cnn(-c2ncccc2F)c1)c1ccccc1Cl [I-1-17]				nematicidal efficacy (formation of galls) (Meloidogyne incognita): 100%
O=C(O)c1cnn(-c2c(F)cccc2F)c1C(F)(F)F [1-(2,6-Difluorophenyl)-5-(trifluoromethyl)-1H-pyrazole-4-carboxylic acid]	2.1	0.13		
O=C(Nc1cnn(-c2cc(F)cnc2F)c1)c1ccccc1I [I-1-33]				efficacy (kill in %) (Cooperia curticei): 80%
O=C(Nc1cn[nH]c1)c1ccccc1C(F)(F)F [N-(1H-Pyrazol-4-yl)-2-(trifluoromethyl)benzamide]	1.21	1.22		
O=C(Nc1cnn(-c2c(F)cccc2F)c1)c1ccccc1Cl [I-1-41]				efficacy (beetle larvae killed) (Phaedon cochleariae): 100%
O=C(Nc1cnn(-c2c(F)cccc2F)c1)c1ccccc1C(F)(F)F [I-1-9, N-[1-(2,6-Difluorophenyl)-1H-pyrazol-4-yl]-2-(trifluoromethyl)benzamide]	2.45	2.36	100	nematicidal efficacy (formation of galls) (Meloidogyne incognita): 100%; efficacy (kill in %) (Cooperia curticei): 100%
O=C(Nc1cnn(-c2ncccc2F)c1)c1c(F)cccc1C(F)(F)F [I-1-18]			80	
O=C(Nc1cnn(-c2ncccc2Br)c1)c1c(F)cccc1F [I-1-31]				efficacy (beetle larvae killed) (Phaedon cochleariae): 100%
O=C(Nc1cnn(-c2ncccc2Cl)c1)c1ccccc1Cl [I-1-23]			90	nematicidal efficacy (formation of galls) (Meloidogyne incognita): 90%; efficacy (beetle larvae killed) (Phaedon cochleariae): 100%
O=C(Nc1cnn(-c2c(F)cccc2F)c1)c1ccccc1Br [I-1-40]			90	efficacy (kill in %) (Cooperia curticei): 80%
O=C(Nc1cnn(-c2c(F)cccc2C(F)(F)F)c1)c1ccccc1C(F)(F)F [I-1-53]				efficacy (kill in %) (Cooperia curticei): 100%
O=C(Nc1cnn(-c2c(F)cccc2F)c1)c1cccnc1C(F)(F)F [I-1-58]			80	
O=C(Nc1cnn(-c2ncccc2F)c1)c1ccccc1C(F)(F)F [I-1-10]			90	nematicidal efficacy (formation of galls) (Meloidogyne incognita): 90%; efficacy (laying of fertile eggs) (Boophilus microplus): 100%
O=C(Nc1cnn(-c2ncccc2Br)c1)c1ccccc1C(F)(F)F [I-1-29]				efficacy (kill in %) (Cooperia curticei): 80%
N#Cc1cccc(F)c1-n1cc(NC(=O)c2ccccc2C(F)(F)F)cn1 [I-1-52, N-[1-(2-Cyano-6-fluorophenyl)-1H-pyrazol-4-yl]-2-(trifluoromethyl)benzamide]	2.37	2.33		
O=C(Nc1cnn(-c2ncccc2Cl)c1)c1ccccc1I [I-1-22]			100	
NNc1c(F)cc(Cl)cc1F [(4-chloro-2,6-difluorophenyl)hydrazine]	0.15	1.44		
O=C(Nc1cnn(-c2ncccc2Cl)c1)c1ccccc1Br [I-1-26]			100	
O=[N+]([O-])c1cnn(-c2c(F)cc(Cl)cc2F)c1 [1-(4-Chloro-2,6-difluorophenyl)-4-nitro-1H-pyrazole]	2.74	2.72		

Compound	chromatographic logP [1, 2]	chromatographic logP [1, 3]	efficacy (kill in %) (Haemonchus contortus) [%]	other results
Nc1cnn(-c2c(F)cccc2F)c1 [1-(2,6-Difluorophenyl)-1H-pyrazole-4-amine]	0.09	0.89		
O=C(Nc1cnn(-c2c(F)cccc2Cl)c1)c1ccccc1C(F)(F)F [I-1-60]				nematicidal efficacy (formation of galls) (Meloidogyne incognita): 90%
O=C(Nc1cnn(-c2ccccc2F)c1)c1ccccc1C(F)(F)F [I-1-8]			100	nematicidal efficacy (formation of galls) (Meloidogyne incognita): 90%; efficacy (kill in %) (Cooperia curticei): 100%
Nc1cnn(-c2c(F)cccc2F)c1C(F)(F)F [1-(2,6-Difluorophenyl)-5-(trifluoromethyl)-1H-pyrazole-4-amine]	2.14	2.13		
O=C(Nc1cnn(-c2ncccc2F)c1)c1ccccc1Br [I-1-16]				nematicidal efficacy (formation of galls) (Meloidogyne incognita): 90%
O=C(Nc1cnn(-c2cnc(F)c(F)c2)c1)c1c(F)cccc1C(F)(F)F [I-1-36]				efficacy (kill in %) (Cooperia curticei): 100%
Fc1cc(Cl)cc(F)c1-n1cccn1 [1-(4-chloro-2,6-difluorophenyl)pyrazole]	2.36	2.34		
CCOC(=O)c1cnn(-c2c(F)cccc2F)c1C(F)(F)F [Ethyl 1-(2,6-difluorophenyl)-5-(trifluoromethyl)-1H-pyrazole-4-carboxylate]	3.56	3.52		
O=C(Nc1cnn(-c2ccccc2F)c1)c1ccccc1I [I-1-7]			90	nematicidal efficacy (formation of galls) (Meloidogyne incognita): 90%; efficacy (beetle larvae killed) (Phaedon cochleariae): 83%; efficacy (kill in %) (Cooperia curticei): 90%
Nc1cnn(-c2c(F)cc(Cl)cc2F)c1Cl [5-Chloro-1-(4-chloro-2,6-difluorophenyl)-1H-pyrazole-4-amine]	2.08	2.14		
O=C(Nc1cnn(-c2ncccc2Cl)c1)c1ccccc1C(F)(F)F [I-1-24]			100	efficacy (kill in %) (Cooperia curticei): 90%
O=C(Nc1cnn(-c2ncccc2Br)c1)c1ccccc1Cl [I-1-30]				efficacy (beetle larvae killed) (Phaedon cochleariae): 83%
O=C(Nc1cnn(-c2c(F)cc(Cl)cc2F)c1Cl)c1ccccc1I [I-1-44]				efficacy (spider mites killed) (Tetranychus urticae): 95%
Nc1cnn(-c2c(F)cc(F)cc2F)c1C(F)(F)F [5-(Trifluoromethyl)-1-(2,4,6-trifluorophenyl)-1H-pyrazole-4-amine]	2.35	2.35		
O=C(Nc1cnn(-c2ncccc2Cl)c1)c1c(F)cccc1C(F)(F)F [I-1-25]			100	efficacy (kill in %) (Cooperia curticei): 90%
CC(C)(C)OC(=O)Nc1cnn(-c2c(F)cccc2F)c1C(F)(F)F [tert-Butyl [1-(2,6-difluorophenyl)-5-(trifluoromethyl)-1H-pyrazol-4-yl]carbamate]	3.61	3.58		
O=C(Nc1cnn(-c2c(F)cccc2F)c1)c1c(F)cccc1C(F)(F)F [I-1-42]			100	efficacy (kill in %) (Cooperia curticei): 80%
N#Cc1cccc(C#N)c1-n1cc(NC(=O)c2ccccc2C(F)(F)F)cn1 [I-1-68]				nematicidal efficacy (formation of galls) (Meloidogyne incognita): 100%
